The target of the first series is T1, PDE 10A (Homo sapiens, UniProt Q9Y233).
T1 construct: is expressed recombinantly in full length in Sf9 insect cells; made in house; host or cells: Sf9 insect cells (Bac-to-Bac baculovirus system); lysate supernatant used as the enzyme preparation
T1 sequence (Q9Y233 1-779 isoform Q9Y233-1): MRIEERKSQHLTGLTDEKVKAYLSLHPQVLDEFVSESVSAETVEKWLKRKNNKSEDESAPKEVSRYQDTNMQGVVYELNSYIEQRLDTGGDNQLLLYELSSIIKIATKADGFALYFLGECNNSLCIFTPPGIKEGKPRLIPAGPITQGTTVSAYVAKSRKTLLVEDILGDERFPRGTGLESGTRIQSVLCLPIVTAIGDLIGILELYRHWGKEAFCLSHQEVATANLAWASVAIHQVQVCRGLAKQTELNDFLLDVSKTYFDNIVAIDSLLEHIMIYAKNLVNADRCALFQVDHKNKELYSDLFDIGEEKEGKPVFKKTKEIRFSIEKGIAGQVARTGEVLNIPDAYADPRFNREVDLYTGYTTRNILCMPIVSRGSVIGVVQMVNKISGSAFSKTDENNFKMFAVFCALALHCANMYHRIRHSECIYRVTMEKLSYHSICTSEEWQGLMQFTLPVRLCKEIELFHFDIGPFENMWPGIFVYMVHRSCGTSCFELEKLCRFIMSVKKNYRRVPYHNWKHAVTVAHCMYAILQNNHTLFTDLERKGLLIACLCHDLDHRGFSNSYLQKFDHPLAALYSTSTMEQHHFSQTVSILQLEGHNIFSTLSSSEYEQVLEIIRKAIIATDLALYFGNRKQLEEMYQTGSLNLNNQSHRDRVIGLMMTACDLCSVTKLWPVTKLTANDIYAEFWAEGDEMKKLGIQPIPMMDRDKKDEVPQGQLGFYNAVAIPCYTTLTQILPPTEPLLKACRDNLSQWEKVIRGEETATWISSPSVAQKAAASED
Put plainly: Inhibition of PDE 10A (in vitro enzyme inhibition test). It counts as biochemical. To be noted: recombinant full-length PDE10A expressed in Sf9 insect cells; substrate [5',8-3H] adenosine 3',5'-cyclic phosphate; 60 min at room temperature; scintillation proximity beads. The procedure:
PDE10A (WO 01/29 199, FIG. 1A) is expressed recombinantly in full length in Sf9 insect cells (Invitrogen, Carlsbad, Calif.) with the aid of the Bac-to-Bac™ Baculovirus expression system of Life Technologies (Gaithersburg, Md.). 48 h after the infection, the cells are harvested and suspended in 20 ml (per 1 l of culture) of lysis buffer (50 mM tris HCl, pH 7.4, 50 mM NaCl, 1 mM MgCl2, 1.5 mM EDTA, 10% glycerol plus 20 μl of Protease Inhibitor Cocktail Set III [CalBiochem, La Jolla, Calif. USA]). The cells are treated at 4° C. for 1 minute with ultrasound and subsequently centrifuged at 10000 rpm for 30 minutes at 4° C. The supernatant (PDE10A preparation) was collected and stored at −20° C.
The test substances are dissolved and serially diluted in 100% DMSO for the determination of their in vitro action on PDE 10A. Typically, dilution series of 200 μM to 1.6 μM are prepared (resulting final concentrations in the test: 4 μM to 0.032 μM). In each case, 2 μl of the diluted substance solutions are introduced into the wells of microtitre plates (Isoplate; Wallac Inc., Atlanta, Ga.). 50 μl of a dilution of the PDE10A preparation described above are subsequently added. The dilution of the PDE10A preparation is chosen such that during the later incubation less than 70% of the substrate is reacted (typical dilution: 1:10000; dilution buffer: 50 mM tris/HCl pH 7.5, 8.3 mM MgCl2, 1.7 mM EDTA, 0.2% BSA). The substrate, [5′,8-^3H] adenosine 3′, 5′-cyclic phosphate (1 μCi/μl; Amersham Pharmacia Biotech., Piscataway, N.J.) is diluted 1:2000 to a concentration of 0.0005 μCi/μl with assay buffer (50 mM tris/HCl pH 7.5, 8.3 mM MgCl2, 1.7 mM EDTA). The enzyme reaction is finally started by addition of 50 μl (0.025 μCi) of the diluted substrate. The test batches are incubated at room temperature for 60 min and the reaction is stopped by addition of 25 μl of a suspension containing 18 mg/ml of Yttrium Scintillation Proximity Beads (Amersham Pharmacia Biotech., Piscataway, N.J.). The microtitre plates are sealed using a film and allowed to stand at room temperature for 60 min. The plates are subsequently measured for 30 s per well in a Microbeta scintillation counter (Wallac Inc., Atlanta, Ga.). IC50 values are determined with the aid of graphic plotting of the substance concentration against the percentage inhibition.
(In general: Scintillation proximity formats need no separation of bound from free tracer.)
By IC50 is commonly meant the concentration needed to halve the response being measured. For the compound `COc1ccc(-c2nc(SCc3cccnc3)c3c(C)nc(C4CCCC4)n3n2)cc1OC` [Example 12, 7-Cyclopentyl-2-(3,4-dimethoxyphenyl)-5-methyl-4-[(3-pyridinylmethyl)sulphanyl]-imidazo[5,1-f][1,2,4]triazine], the IC50 worked out at 460 nM.

Test system in the next series: not given
Assay: not given
Settings: not given
The term melting point denotes the temperature, or range, at which the solid turns liquid. With `COc1ccc(Nc2nc(-c3ccc(OC)c(OC)c3)nn3c(C4CCCC4)nc(C)c23)cc1` [Example 20, 7-Cyclopentyl-2-(3,4-dimethoxyphenyl)-N-(4-methoxyphenyl)-5-methylimidazo-[5,1-f][1,2,4]triazin-4-amine], the melting point came out at 185 °C.
Consider `COc1ccc(-c2nc(Oc3cc(OC)c(OC)c(OC)c3)c3c(C)nc(CC(C)C)n3n2)cc1Cl` [Example 30, 2-(3-Chloro-4-methoxyphenyl)-7-isobutyl-5-methyl-4-(3,4,5-trimethoxyphenoxy)-imidazo[5,1-f][1,2,4]triazine], for which the melting point was determined as 160 °C.
For the compound `COc1cc(OC)cc(-c2nc(Oc3cc(OC)c(OC)c(OC)c3)c3c(C)nc(C)n3n2)c1` [Example 27, 2-(3,5-Dimethoxyphenyl)-5,7-dimethyl-4-(3,4,5-trimethoxyphenoxy)imidazo[5,1-f]-[1,2,4]triazine], the melting point is 220 °C.
Compound `COc1ccc(CNc2nc(-c3ccc(Br)cc3)nn3c(C)nc(C)c23)cc1OC` [Example 51, 2-(4-Bromophenyl)-N-(3,4-dimethoxybenzyl)-5,7-dimethylimidazo[5,1-f]-[1,2,4]triazin-4-amine] registered a melting point of 119 to 122 °C.
Same read-out and setting: for `COc1ccc(-c2nc(NCc3cc(OC)c(OC)c(OC)c3)c3c(C)nc(C4CCCC4)n3n2)cc1OC` [Example 17, 7-Cyclopentyl-2-(3,4-dimethoxyphenyl)-5-methyl-N-(3,4,5-trimethoxybenzyl)-imidazo[5,1-f][1,2,4]triazin-4-amine] the value was 188 °C; for `COc1ccc(Nc2nc(-c3ccc(OC)c(OC)c3)nn3c(C)nc(C)c23)cc1Cl` [Example 13, N-(3-Chloro-4-methoxyphenyl)-2-(3,4-dimethoxyphenyl)-5,7-dimethylimidazo [5,1-f][1,2,4]triazin-4-amine], 195 °C.
Regarding `CCc1nc(C2CCCC2)n2nc(-c3ccc(OC)c(S(=O)(=O)N4CCOCC4)c3)nc(Oc3cc(OC)c(OC)c(OC)c3)c12` [Example 25, 7-Cyclopentyl-5-ethyl-2-[4-methoxy-3-(4-morpholinylsulphonyl)phenyl]-4-(3,4,5-trimethoxyphenoxy)imidazo[5,1-f][1,2,4]triazine], the melting point came to 119 °C.
The same measure, in the same setting: for `CCCc1nc(C)c2c(Nc3cc(OC)c(OC)c(OC)c3)nc(-c3ccccc3OCC)nn12` [Example 44, 2-(2-Ethoxyphenyl)-5-methyl-7-propyl-N-(3,4,5-trimethoxyphenyl)imidazo[5,1-f]-[1,2,4]triazin-4-amine] the value was 112 to 114 °C; for `COc1ccc(-c2nc(Oc3cc(OC)c(OC)c(OC)c3)c3c(C)nc(C)n3n2)cc1OC` [Example 22, 2-(3,4-Dimethoxyphenyl)-5,7-dimethyl-4-(3,4,5-trimethoxyphenoxy)imidazo[5,1-f]-[1,2,4]triazine], 184 °C.
The compound `COc1cccc(Nc2nc(-c3ccc(OC)c(OC)c3)nn3c(C4CCCC4)nc(C)c23)c1` [Example 23, 7-Cyclopentyl-2-(3,4-dimethoxyphenyl)-N-(3-methoxyphenyl)-5-methylimidazo-[5,1-f][1,2,4]triazin-4-amine] came in with a melting point of 126 °C.
With `COc1ccc(-c2nc(SCc3cccnc3)c3c(C)nc(C)n3n2)cc1OC` [Example 4, 2-(3,4-Dimethoxyphenyl)-5,7-dimethyl-4-[(3-pyridinylmethyl)sulphanyl]imidazo-[5,1-f][1,2,4]triazine], the melting point was found to be 161 °C.
As to `COc1ccc(-c2nc(Oc3cc(OC)c(OC)c(OC)c3)c3c(C)nc(C)n3n2)cc1Cl` [Example 29, 2-(3-Chloro-4-methoxyphenyl)-5,7-dimethyl-4-(3,4,5-trimethoxyphenoxy)imidazo-[5,1-f][1,2,4]triazine], the melting point was 213 °C.
Regarding `COc1ccc(-c2nc(Nc3cc(C)c(OC)c(C)c3)c3c(C)nc(C4CCCC4)n3n2)cc1OC` [Example 15, 7-Cyclopentyl-2-(3,4-dimethoxyphenyl)-N-(4-methoxy-3,5-dimethylphenyl)-5-methylimidazo[5,1-f][1,2,4]triazin-4-amine], the melting point is 180 °C.
In turn, `CCOc1ccc(CCNc2nc(-c3ccc(Br)cc3)nn3c(C)nc(C)c23)cc1OC` [Example 35, 2-(4-Bromophenyl)-N-[2-(4-ethoxy-3-methoxyphenyl)ethyl]-5,7-dimethylimidazo-[5,1-f][1,2,4]triazin-4-amine] showed a melting point of 188 to 190 °C.
In the case of `CCC(CC)c1nc(C)c2c(Oc3cc(OC)c(OC)c(OC)c3)nc(-c3ccc(OC)c(Cl)c3)nn12` [Example 32, 2-(3Chloro-4-methoxyphenyl)-7-(1-ethylpropyl)-5-methyl-4-(3,4,5-trimethoxyphenoxy)imidazo[5,1-f][1,2,4]triazine], the melting point is 166 °C.
Still for that read-out and setting: with `CCCc1nc(C)c2c(Sc3ccc(NC(C)=O)cc3)nc(-c3ccccc3OCC)nn12` [Example 36, N-(4-{[2-(2-Ethoxyphenyl)-5-methyl-7-propylimidazo[5,1-f][1,2,4]triazin-4-yl]-sulphanyl}phenyl)acetamide] the figure was 226 to 228 °C.
`COc1cc(OC)cc(-c2nc(Nc3cc(OC)c(OC)c(OC)c3)c3c(C)nc(C)n3n2)c1` [Example 54, 2-(3,5-Dimethoxyphenyl)-5,7-dimethyl-N-(3,4,5-trimethoxyphenyl)imidazo[5,1-f]-[1,2,4]triazin-4-amine] yielded a melting point of 176 to 179 °C.
For `CCCc1nc(C)c2c(NCc3ccc(OC)cc3OC)nc(-c3ccccc3OCC)nn12` [Example 46, N-(2,4-Dimethoxybenzyl)-2-(2-ethoxyphenyl)-5-methyl-7-propylimidazo[5,1-f]-[1,2,4]triazin-4-amine], the melting point lay within 98 to 99 °C.
The compound `CCCc1nc(C)c2c(Oc3cc(OC)c(OC)c(OC)c3)nc(-c3ccccc3OCC)nn12` [Example 101, 2-(2-Ethoxyphenyl)-5-methyl-7-propyl-4-(3,4,5-trimethoxyphenoxy)imidazo[5,1-f]-[1,2,4]triazine] had a melting point of 153 °C.
The same measure, in the same setting: for `CCc1nc(C2CCCC2)n2nc(-c3ccc(OC)cc3)nc(Nc3cc(OC)c(OC)c(OC)c3)c12` [Example 26, N-[7Cyclopentyl-5-ethyl-2-(4-methoxyphenyl)imidazo[5,1-f][1,2,4]triazin-4-yl]-N-(3,4,5-trimethoxyphenyl)amine] the value was 160 °C; for `COc1ccc(-c2nc(Nc3cc(OC)c(OC)c(OC)c3)c3c(C)nc(C)n3n2)cc1Cl` [Example 34, 2-(3-Chloro-4-methoxyphenyl)-N-(3,4,5-trimethoxyphenyl)-5,7-dimethylimidazo-[5,1-f][1,2,4]triazin-4-amine], 194 to 195 °C; for `COc1cc(Oc2nc(-c3ccc(Br)cc3)nn3c(C)nc(C)c23)cc(OC)c1OC` [Example 28, 2-(4-Bromophenyl)-5,7-dimethyl-4-(3,4,5-trimethoxyphenoxy)imidazo[5,1-f]-[1,2,4]triazine], 199 °C.
In turn, `COc1ccc(-c2nc(Nc3ccc(OC)c(OC)c3)c3c(C)nc(C)n3n2)cc1Cl` [Example 33, 2-(3-Chloro-4-methoxyphenyl)-N-(3,4-dimethoxyphenyl)-5,7-dimethylimidazo-[5,1-f][1,2,4]triazin-4-amine] gave a melting point of 220 to 222 °C.
Compound `CCCc1nc(C)c2c(Nc3cccc(Br)c3)nc(-c3ccccc3OCC)nn12` [Example 39, N-(3-Bromophenyl)-2-(2-ethoxyphenyl)-5-methyl-7-propylimidazo[5,1-f]-[1,2,4]triazin-4-amine] yielded a melting point of 96 °C.
`COc1ccc(-c2nc(Nc3cc(C)c(OC)c(C)c3)c3c(C)nc(C)n3n2)cc1OC` [Example 14, 2-(3,4-Dimethoxyphenyl)-N-(4-methoxy-3,5-dimethylphenyl)-5,7-dimethylimidazo-[5,1-f][1,2,4]triazin-4-amine] gave a melting point of 173 °C.

(Values after patent publication US6936609B2, “Imidazotriazines for use as phosphodiesterase inhibitors” (Bayer HealthCare AG, priority 2001, dated 2005).)
